The text below walks through data of publication PMC9908614 (Frontiers in Microbiology, 2023).

Series [1] concerns the target T1, EphH (Rv3338) (Mycobacterium tuberculosis, UniProt O53388). The series is classed as biochemical.
In series [2] the test system is COc1ccc2cc(C(C#N)OC(=O)CC3OC3c3ccccc3)ccc2c1. Nature of the series: purified protein.
For series [3], the target named is T1, EphH (Rv3338). Put plainly: biochemical. Particulars: read-out: rEphH.
Series [4] addresses T2, sEH (human recombinant sEH) (Homo sapiens, UniProt P34913).
T2 construct: gene EPHX2
T2 sequence (P34913 1-555): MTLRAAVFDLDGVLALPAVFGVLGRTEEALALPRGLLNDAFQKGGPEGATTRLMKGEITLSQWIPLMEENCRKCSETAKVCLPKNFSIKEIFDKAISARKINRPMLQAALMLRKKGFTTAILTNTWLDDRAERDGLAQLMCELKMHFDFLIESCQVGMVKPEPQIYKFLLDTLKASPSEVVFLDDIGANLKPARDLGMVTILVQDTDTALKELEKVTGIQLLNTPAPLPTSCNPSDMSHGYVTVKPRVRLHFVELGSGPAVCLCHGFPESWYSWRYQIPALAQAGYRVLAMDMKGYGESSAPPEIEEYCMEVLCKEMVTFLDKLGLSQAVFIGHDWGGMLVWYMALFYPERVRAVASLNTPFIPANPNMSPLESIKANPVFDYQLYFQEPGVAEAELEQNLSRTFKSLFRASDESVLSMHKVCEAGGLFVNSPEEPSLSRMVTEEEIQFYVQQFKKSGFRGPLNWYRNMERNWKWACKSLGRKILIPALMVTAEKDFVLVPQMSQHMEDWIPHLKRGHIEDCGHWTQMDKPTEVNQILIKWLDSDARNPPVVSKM
Put plainly: fluorescence hydrolysis assay, Michaelis-Menten (Km). The series is classed as biochemical. The settings on record: cited from earlier work.

T1 sequence (O53388 whole entry): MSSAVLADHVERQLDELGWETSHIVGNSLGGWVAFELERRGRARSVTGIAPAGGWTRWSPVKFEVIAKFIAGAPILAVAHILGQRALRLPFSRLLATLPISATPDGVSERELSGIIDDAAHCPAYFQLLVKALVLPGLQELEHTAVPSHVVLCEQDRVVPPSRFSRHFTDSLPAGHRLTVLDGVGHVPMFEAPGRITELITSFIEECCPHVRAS

On to `c1ccc(C2CO2)cc1` (racemic) [styrene oxide], for which the “colorimetric Red assay (NaIO4/adrenaline) with purified rEphH” value at EphH (Rv3338) [1] is “EphH activity was also determined with another EH substrate, styrene oxide”.

Regarding “EphH (Rv3338) (Mycobacterium tuberculosis H37Rv)”, in series [2], the Michaelis-Menten constant (Km) (as a rule, the substrate concentration at which the rate is half of its maximum) turned out to be 21.03 µM; the Vmax (usually the top rate of the reaction or transport when substrate is in excess) was determined as 1.027 µmol/min; the specificity constant (kcat/Km) – broadly, the turnover number divided by the Michaelis constant – amounted to 0.87 s⁻¹ µM⁻¹.

For the compound `O=C(O)CCCCCCCCCCCNC(=O)NC12CC3CC(CC(C3)C1)C2` [AUDA, 12-(3-adamantane-1-yl-ureido)-dodecanoic acid], the IC50 on EphH (Rv3338) [3] turned out to be 9.4 ± 0.5 nM.

In the case of `COc1ccc2cc(C(C#N)OC(=O)CC3OC3c3ccccc3)ccc2c1` (stereo not drawn) [PHOME, (3-phenyl-oxiranyl)-acetic acid cyano-(6-methoxynaphthalen-2-yl)-methyl ester], in series [4], the Michaelis constant (Km) was 26.2 µM.
